The values below come from patent US20260242398A1, “BENZOPYRIMIDIN-4(3H)-ONES AS PI3K INHIBITORS” (OnKure, Inc., priority 2022, published 2026).

pEC50, pIC50: −log10 of the molar value. Read-outs that look alike come from different tables or passages of the source.

Data set [1] has as its system T47D cells expressing mutant PI3Ka (H1047R). The experiment in a line: In vitro cell proliferation (CellTiter-Glo, 72 hours), T47D cells. It counts as cell-based. The settings on record: inhibition of proliferation, read-out: Avg T-47D EC50. The essentials: (§1)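 1,500 cells/well (T47D in RPMI/10% FBS/insulin 0.2 units/mL; SKBR3 in McCoys 5a/10% FBS) plated onto 10-point compound dilutions and grown 72 h at 37 °C, 5% CO2; CellTiter-Glo luminescence. Inhibition scaled between 0.1% DMSO and 10 uM alpelisib; EC50 from four-parameter logistic fit.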

Data set [2] relates to phosphorylation of AKT (pAKT) in T47D cells expressing mutant PI3Ka (H1047R). The experiment in a line: In vitro cell pAKT (Ser473) HTRF, T47D cells. The data set is classed as cell-based. The settings on record: inhibition of pAKT, read-out: Avg T-47D IC50. A digest of the protocol: (§2)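 T47D (PI3Kα H1047R; RPMI, 10% FBS, insulin) or SKBR3 (WT PI3Kα; McCoy's 5a, 10% FBS) cells, 5000/well, are treated with 10-point compound dilutions for 6 h at 37° C. Lysates are read for pAKT Ser473 by HTRF. Inhibition is normalised to DMSO (0%) and 10 μM alpelisib (100%), and IC50 comes from a four-parameter fit.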
For orientation: TR-FRET usually uses a lanthanide donor and a delayed reading to cut background.

In data set [3] the test system is SKBR3 cells express WT PI3Ka. The experiment in a line: In vitro cell proliferation (CellTiter-Glo, 72 hours), SKBR3 cells. The data set is classed as cell-based. The settings on record: inhibition of proliferation. A digest of the protocol:
as §1
A general note: In ATP-based viability assays light output follows the ATP content of the culture.

For data set [4], the system named is phosphorylation of AKT (pAKT) in SKBR3 cells express WT PI3Ka. The experiment in a line: In vitro cell pAKT (Ser473) HTRF, SKBR3 cells. It counts as cell-based. The settings on record: inhibition of pAKT. A digest of the protocol: as §2
Data set [5] is described as follows: Mouse pharmacokinetics, single IV or PO dose, plasma LC/MS/MS. It counts as in vivo. The settings on record: CD1 mice; for PK-Mouse: PO F: PO 10 mg/kg vs IV 1 mg/kg; for AUC(0-t) / clearance: mouse, plasma; for clearance: read-out: PK-Mouse: IV Cl. As for the experimental part:
CD1 mice were dosed with a single IV or PO dose, followed by serial sampling of plasma at 0.0833 (IV only), 0.25, 0.5, 1, 2, 4, 8, 24 hours post dose. Desired serial concentrations of working solutions were achieved by diluting stock solution of analyte with 50% acetonitrile in water solution. 10 μL of working solutions (0.5, 1, 2, 5, 10, 50, 100, 500, 1000 ng/mL) were added to 10 μL of the blank Female CD1 Mouse plasma to achieve calibration standards of 0.5~1000 ng/mL (0.5, 1, 2, 5, 10, 50, 100, 500, 1000 ng/mL) in a total volume of […]. Five quality control samples at 1 ng/mL, 2 ng/mL, 5 ng/mL, 50 ng/mL and 800 ng/mL for plasma were prepared independently of those used for the calibration curves. These QC samples were prepared on the day of analysis in the same way as calibration standards. 20 μL standards, 20 μL QC samples and 20 μL unknown samples (10 μL plasma with 10 μL blank solution) were added to 200 μL of acetonitrile containing IS mixture for precipitating protein respectively. Then the samples were vortexed for 30 s. after centrifugation at 4° Celsius, 4000 rpm for 15 min. The supernatant was diluted with water at a ratio of 1:2 (V/V, 1:2), Then 5 μL of diluted supernatant was injected into the LC/MS/MS system for quantitative analysis.

[6] abbreviates: IV 1 mg/kg, solution in 20% PEG400/20% PG/60% of 20% HPBCD solution in water, read-out: PK-Mouse: IV AUC last.
Setting [7] is: IV 1 mg/kg, solution in 20% PEG400/20% PG/60% of 20% HPBCD solution in water.
The mark [8] stands for this setting: PO 10 mg/kg, suspension in 30% SBEβCD in water, read-out: PK-Mouse PO AUC last.

As a reminder, the pEC50 is the negative decadic logarithm of the EC50, by convention in mol/L. By pIC50 is commonly meant the negative decadic logarithm of the IC50, by convention in mol/L. For `Cc1cc(C(C)Nc2ccc(F)cc2C(=O)O)c2nc(N3CCC(C)(C)CC3)n(C)c(=O)c2c1` (single isomer, unassigned) [Example 29, 2-((1-(2-(4,4-dimethylpiperidin-1-yl)-3,6-dimethyl-4-oxo-3,4-dihydroquinazolin-8-yl)ethyl)amino)-5-fluorobenzoic acid], the negative logarithm of the EC50 (pEC50) is 6.30 to 9.00 in data set [1] and 4.82 to 5.70 in data set [3] (Homo sapiens, SK-BR-3, 72 h). For the same molecule, the pIC50 is 6.00 to 9.00 in data set [2] (6 hour) and < 4.82 in data set [4] (Homo sapiens, SK-BR-3, 6 h). In addition, the “PK-Mouse: PO F” value in data set [5] turned out to be 61%. The values for the AUC(0-t) in data set [5] (setting [6]) and in data set [5] (setting [8]) were 1740 ng·h/mL and 10700 ng·h/mL, respectively. Moreover, the clearance in data set [5] (setting [7]) amounted to 8.7 mL/min/kg.

`CC(Nc1ccccc1C(=O)O)c1cc(F)cc2c(=O)n(C)c(N3CCN(CC(F)(F)F)CC3)nc12` (single isomer, unassigned) [Example 35, 2-((1-(6-fluoro-3-methyl-4-oxo-2-(4-(2,2,2-trifluoroethyl)piperazin-1-yl)-3,4-dihydroquinazolin-8-yl)ethyl)amino)benzoic acid]: the negative-log EC50 (pEC50) in data set [1] is 5.70 to 6.30; in data set [3] (Homo sapiens, SK-BR-3, 72 h), < 4.82. Further, the pIC50 in data set [2] (6 hour) is 6.00 to 9.00; in data set [4] (Homo sapiens, SK-BR-3, 6 h) it was < 4.82. The “PK-Mouse: PO F” value in data set [5] stood at 187%. Also, the values for the AUC(0-t) in data set [5] (setting [6]) and in data set [5] (setting [8]) were 242 ng·h/mL and 4520 ng·h/mL, respectively. Besides, the clearance in data set [5] (setting [7]) is 59.5 mL/min/kg.

Regarding `Cc1cc(C(C)Nc2ccccc2C(=O)O)c2nc(Nc3ccc(Cl)cc3)n(C)c(=O)c2c1` (single isomer, unassigned) [Example 42, 2-((1-(2-((4-chlorophenyl)amino)-3,6-dimethyl-4-oxo-3,4-dihydroquinazolin-8-yl)ethyl)amino)benzoic acid], the pEC50 in data set [1] is 4.82 to 5.70; in data set [3] it was < 4.82. Besides, the pIC50 in data set [2] (6 hour) and in data set [4] (6 hour) was < 4.82 each time.

In the case of `Cc1cc(C(C)Nc2ccccc2C(=O)O)c2nc(NCc3ccc(Cl)cc3)n(C)c(=O)c2c1` (single isomer, unassigned) [Example 43, 2-((1-(2-((4-chlorobenzyl)amino)-3,6-dimethyl-4-oxo-3,4-dihydroquinazolin-8-yl)ethyl)amino)benzoic acid], the negative logarithm of the EC50 (pEC50) in data set [1] (Homo sapiens, T47D, 72 h) is 4.82 to 5.70; in data set [3] (Homo sapiens, SK-BR-3, 72 h), < 4.82. Also, the pIC50 in data set [2] (6 hour) is 4.82 to 5.30; in data set [4] (Homo sapiens, SK-BR-3, 6 h) it was < 4.82.

Take `Cc1cc(C(C)Nc2ccccc2C(=O)O)c2nc(NCc3ccc(Cl)cc3)n(C)c(=O)c2c1` (single isomer, unassigned) [Example 44, 2-((1-(2-((4-chlorobenzyl)amino)-3,6-dimethyl-4-oxo-3,4-dihydroquinazolin-8-yl)ethyl)amino)benzoic acid]: the pEC50 is 4.82 to 5.70 in data set [1] and < 4.82 in data set [3]. The pIC50 in data set [2] (6 hour) and in data set [4] (6 hour) was < 4.82 each time.

`Cc1cc(C(C)Nc2ccccc2C(=O)O)c2nc(NC[C@H](C)c3ccccc3)n(C)c(=O)c2c1` (single isomer, unassigned) [Example 45]: the pEC50 is 4.82 to 5.70 in data set [1] and < 4.82 in data set [3]. The negative-log IC50 (pIC50) in data set [2] (6 hour) was < 4.82; in data set [4] (Homo sapiens, SK-BR-3, 6 h) it was < 4.82.

For `Cc1cc(C(C)Nc2ccccc2C(=O)O)c2nc(NC[C@H](C)c3ccccc3)n(C)c(=O)c2c1` (single isomer, unassigned) [Example 46], the negative-log EC50 (pEC50) was 5.70 to 6.30 in data set [1] and 4.82 to 5.70 in data set [3]. Further, the values for the negative logarithm of the IC50 (pIC50) in data set [2] (6 hour) and in data set [4] (6 hour) were 6.00 to 9.00 and < 4.82, respectively.

Regarding `Cc1cc(C(C)Nc2ccccc2C(=O)O)c2nc(NC[C@@H](C)c3ccccc3)n(C)c(=O)c2c1` (single isomer, unassigned) [Example 47], the figures for the pEC50 in data set [1] and in data set [3] were 5.70 to 6.30 and < 4.82, respectively. For the same molecule, the negative logarithm of the IC50 (pIC50) in data set [2] (6 hour) was 4.82 to 5.30; in data set [4] (Homo sapiens, SK-BR-3, 6 h) it was < 4.82.

For the molecule `Cc1cc(C(C)Nc2ccccc2C(=O)O)c2nc(NC[C@@H](C)c3ccccc3)n(C)c(=O)c2c1` (single isomer, unassigned) [Example 48], the pEC50 in data set [1] and in data set [3] was 4.82 to 5.70 throughout. The pIC50 in data set [2] (6 hour) and in data set [4] (6 hour) was < 4.82 each time.

`Cc1cc(C(C)Nc2ccccc2C(=O)O)c2nc(N3CCC(C)(C)CC3)n(C3CC3)c(=O)c2c1` (single isomer, unassigned) [Example 49, 2-((1-(3-cyclopropyl-2-(4,4-dimethylpiperidin-1-yl)-6-methyl-4-oxo-3,4-dihydroquinazolin-8-yl)ethyl)amino)benzoic acid]: the negative logarithm of the EC50 (pEC50) in data set [1] (Homo sapiens, T47D, 72 h) was 4.82 to 5.70; in data set [3], 4.82 to 5.70. Further, the negative-log IC50 (pIC50) is 5.30 to 6.00 in data set [2] (6 hour) and < 4.82 in data set [4] (Homo sapiens, SK-BR-3, 6 h).

`Cc1cc(C(C)Nc2ccccc2C(=O)O)c2nc(N3CCC(C)(C)CC3)n(C3CC3)c(=O)c2c1` (single isomer, unassigned) [Example 50, 2-((1-(3-cyclopropyl-2-(4,4-dimethylpiperidin-1-yl)-6-methyl-4-oxo-3,4-dihydroquinazolin-8-yl)ethyl)amino)benzoic acid]: the negative logarithm of the EC50 (pEC50) in data set [1] is 4.82 to 5.70; in data set [3], < 4.82. Besides, the pIC50 in data set [2] (6 hour) and in data set [4] (6 hour) was < 4.82 in each case.

Turning to `Cc1cc(C(C)Nc2ccccc2C(=O)O)c2nc(N3CCC(C)(C)CC3)n(CF)c(=O)c2c1` (single isomer, unassigned) [Example 51, 2-((1-(2-(4,4-dimethylpiperidin-1-yl)-3-(fluoromethyl)-6-methyl-4-oxo-3,4-dihydroquinazolin-8-yl)ethyl)amino)benzoic acid], the pEC50 in data set [1] (Homo sapiens, T47D, 72 h) is 4.82 to 5.70; in data set [3], 4.82 to 5.70. Besides, the negative-log IC50 (pIC50) was 4.82 to 5.30 in data set [2] (6 hour) and < 4.82 in data set [4] (Homo sapiens, SK-BR-3, 6 h).

As to `Cc1cc(C(C)Nc2ccccc2C(=O)O)c2nc(N3CCC(C)(C)CC3)n(CF)c(=O)c2c1` (single isomer, unassigned) [Example 52, 2-((1-(2-(4,4-dimethylpiperidin-1-yl)-3-(fluoromethyl)-6-methyl-4-oxo-3,4-dihydroquinazolin-8-yl)ethyl)amino)benzoic acid], the pEC50 was 4.82 to 5.70 in data set [1] and < 4.82 in data set [3]. The pIC50 in data set [2] (6 hour) and in data set [4] (6 hour) was < 4.82 each time.

Consider `Cc1cc(C(C)Nc2cccc(F)c2C(=O)O)c2nc(N3CCC(C)(C)CC3)n(C)c(=O)c2c1` (stereo not shown) [Example 28, 2-((1-(2-(4,4-dimethylpiperidin-1-yl)-3,6-dimethyl-4-oxo-3,4-dihydroquinazolin-8-yl)ethyl)amino)-6-fluorobenzoic acid], for which the pEC50 in data set [1] (Homo sapiens, T47D, 72 h) was 4.82 to 5.70; in data set [3] (Homo sapiens, SK-BR-3, 72 h), < 4.82. For the same molecule, the pIC50 in data set [2] (Homo sapiens, T47D, 6 h) was 6.00 to 9.00; in data set [4] (Homo sapiens, SK-BR-3, 6 h), < 4.82.
